{
  "source": "ChEMBL document CHEMBL1201862",
  "about": "“PubChem BioAssay data set” (2004)",
  "key": {"[1]": {"target": "Proto-oncogene tyrosine-protein kinase receptor Ret (Homo sapiens, UniProt P07949)", "sequence (P07949 whole entry)": "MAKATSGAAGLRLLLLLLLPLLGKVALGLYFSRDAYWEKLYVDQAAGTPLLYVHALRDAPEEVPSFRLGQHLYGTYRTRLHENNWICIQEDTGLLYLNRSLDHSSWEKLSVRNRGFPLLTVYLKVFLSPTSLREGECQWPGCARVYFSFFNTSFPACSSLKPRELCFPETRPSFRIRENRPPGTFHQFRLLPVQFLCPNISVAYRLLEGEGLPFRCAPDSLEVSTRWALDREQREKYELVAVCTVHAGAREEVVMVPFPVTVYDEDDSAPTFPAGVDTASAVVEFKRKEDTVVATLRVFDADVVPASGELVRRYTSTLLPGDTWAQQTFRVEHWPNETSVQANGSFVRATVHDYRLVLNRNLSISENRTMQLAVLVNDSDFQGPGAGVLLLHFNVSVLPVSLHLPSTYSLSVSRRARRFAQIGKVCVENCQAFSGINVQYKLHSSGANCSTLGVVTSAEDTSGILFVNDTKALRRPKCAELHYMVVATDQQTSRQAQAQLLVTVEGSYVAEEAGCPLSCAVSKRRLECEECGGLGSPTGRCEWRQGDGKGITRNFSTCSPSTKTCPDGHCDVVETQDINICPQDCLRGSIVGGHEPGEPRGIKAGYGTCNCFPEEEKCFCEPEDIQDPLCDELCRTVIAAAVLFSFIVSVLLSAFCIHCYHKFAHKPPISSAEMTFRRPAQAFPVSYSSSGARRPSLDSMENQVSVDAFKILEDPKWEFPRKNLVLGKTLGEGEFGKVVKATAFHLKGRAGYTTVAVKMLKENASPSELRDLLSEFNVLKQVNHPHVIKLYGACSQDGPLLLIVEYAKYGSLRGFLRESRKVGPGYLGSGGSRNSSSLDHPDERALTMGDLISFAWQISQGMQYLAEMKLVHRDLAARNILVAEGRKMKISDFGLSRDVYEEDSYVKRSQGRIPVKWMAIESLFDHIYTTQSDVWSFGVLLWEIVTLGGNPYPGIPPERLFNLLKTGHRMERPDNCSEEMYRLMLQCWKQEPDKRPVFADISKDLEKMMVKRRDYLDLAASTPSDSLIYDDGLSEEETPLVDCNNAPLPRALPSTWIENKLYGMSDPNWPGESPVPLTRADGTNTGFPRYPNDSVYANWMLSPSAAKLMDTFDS", "assay_type": "functional"}, "Focal adhesion kinase 1": {"target": "Focal adhesion kinase 1 (Homo sapiens, UniProt Q05397)", "sequence (Q05397 whole entry)": "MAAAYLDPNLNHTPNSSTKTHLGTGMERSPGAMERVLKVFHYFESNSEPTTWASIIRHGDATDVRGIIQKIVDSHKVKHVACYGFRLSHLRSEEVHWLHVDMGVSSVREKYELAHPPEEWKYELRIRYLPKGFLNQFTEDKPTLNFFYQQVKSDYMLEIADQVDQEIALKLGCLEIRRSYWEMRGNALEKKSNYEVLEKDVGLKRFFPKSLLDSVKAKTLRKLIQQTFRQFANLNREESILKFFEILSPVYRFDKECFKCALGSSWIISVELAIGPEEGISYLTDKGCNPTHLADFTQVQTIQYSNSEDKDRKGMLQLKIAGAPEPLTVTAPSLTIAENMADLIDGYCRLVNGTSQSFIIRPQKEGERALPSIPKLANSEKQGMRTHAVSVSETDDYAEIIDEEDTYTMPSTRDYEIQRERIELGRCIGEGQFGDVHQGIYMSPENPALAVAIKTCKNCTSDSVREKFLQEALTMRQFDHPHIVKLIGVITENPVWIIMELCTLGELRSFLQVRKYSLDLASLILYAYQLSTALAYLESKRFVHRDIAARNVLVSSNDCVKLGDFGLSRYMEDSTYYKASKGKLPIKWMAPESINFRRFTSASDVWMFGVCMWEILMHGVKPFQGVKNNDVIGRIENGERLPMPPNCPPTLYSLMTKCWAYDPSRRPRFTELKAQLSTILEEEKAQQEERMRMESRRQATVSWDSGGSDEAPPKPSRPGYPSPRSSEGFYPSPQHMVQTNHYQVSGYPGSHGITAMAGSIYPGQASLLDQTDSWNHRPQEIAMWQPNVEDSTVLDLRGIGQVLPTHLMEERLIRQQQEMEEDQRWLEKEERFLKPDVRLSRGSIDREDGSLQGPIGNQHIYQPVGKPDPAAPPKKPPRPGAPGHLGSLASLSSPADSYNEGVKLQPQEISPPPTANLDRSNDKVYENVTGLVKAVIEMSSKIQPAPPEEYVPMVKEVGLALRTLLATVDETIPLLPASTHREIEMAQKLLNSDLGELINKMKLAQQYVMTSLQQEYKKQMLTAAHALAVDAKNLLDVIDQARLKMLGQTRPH", "assay_type": "functional"}, "[2]": {"target": "T1, Replicative DNA helicase DnaB (Mycobacterium tuberculosis, UniProt P9WMR3)", "T1 sequence (P9WMR3 whole entry)": "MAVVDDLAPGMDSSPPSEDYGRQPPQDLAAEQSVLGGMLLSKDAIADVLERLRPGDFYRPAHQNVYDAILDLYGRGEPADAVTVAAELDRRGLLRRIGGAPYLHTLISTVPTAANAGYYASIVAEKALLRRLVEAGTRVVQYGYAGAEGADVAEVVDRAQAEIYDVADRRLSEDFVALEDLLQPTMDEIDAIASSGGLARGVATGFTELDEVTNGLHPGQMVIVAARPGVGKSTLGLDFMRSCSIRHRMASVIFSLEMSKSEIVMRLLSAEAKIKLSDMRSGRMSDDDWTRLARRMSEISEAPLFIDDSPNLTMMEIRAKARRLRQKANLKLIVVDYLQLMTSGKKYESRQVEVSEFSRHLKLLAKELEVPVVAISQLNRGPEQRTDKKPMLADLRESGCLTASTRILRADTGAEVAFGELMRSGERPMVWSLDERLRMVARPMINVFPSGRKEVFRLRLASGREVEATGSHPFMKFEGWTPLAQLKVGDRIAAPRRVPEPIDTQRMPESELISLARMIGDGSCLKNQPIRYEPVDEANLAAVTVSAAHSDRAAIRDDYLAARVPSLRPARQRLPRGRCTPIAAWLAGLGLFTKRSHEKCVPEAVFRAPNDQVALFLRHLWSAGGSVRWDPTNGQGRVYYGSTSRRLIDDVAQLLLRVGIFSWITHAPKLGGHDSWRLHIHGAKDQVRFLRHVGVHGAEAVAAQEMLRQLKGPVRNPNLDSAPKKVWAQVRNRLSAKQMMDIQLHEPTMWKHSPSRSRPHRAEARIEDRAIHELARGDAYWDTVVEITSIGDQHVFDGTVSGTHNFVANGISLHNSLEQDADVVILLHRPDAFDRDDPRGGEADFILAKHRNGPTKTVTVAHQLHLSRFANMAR", "experiment": "DnaB intein splicing inhibitors, dose response, biochemical, cell-free fluorescence (AID 449749)", "assay_type": "functional"}, "Genome polyprotein": {"target": "Genome polyprotein (dengue virus type 2, UniProt P29990)", "sequence (P29990 2492-3391 limits assumed)": "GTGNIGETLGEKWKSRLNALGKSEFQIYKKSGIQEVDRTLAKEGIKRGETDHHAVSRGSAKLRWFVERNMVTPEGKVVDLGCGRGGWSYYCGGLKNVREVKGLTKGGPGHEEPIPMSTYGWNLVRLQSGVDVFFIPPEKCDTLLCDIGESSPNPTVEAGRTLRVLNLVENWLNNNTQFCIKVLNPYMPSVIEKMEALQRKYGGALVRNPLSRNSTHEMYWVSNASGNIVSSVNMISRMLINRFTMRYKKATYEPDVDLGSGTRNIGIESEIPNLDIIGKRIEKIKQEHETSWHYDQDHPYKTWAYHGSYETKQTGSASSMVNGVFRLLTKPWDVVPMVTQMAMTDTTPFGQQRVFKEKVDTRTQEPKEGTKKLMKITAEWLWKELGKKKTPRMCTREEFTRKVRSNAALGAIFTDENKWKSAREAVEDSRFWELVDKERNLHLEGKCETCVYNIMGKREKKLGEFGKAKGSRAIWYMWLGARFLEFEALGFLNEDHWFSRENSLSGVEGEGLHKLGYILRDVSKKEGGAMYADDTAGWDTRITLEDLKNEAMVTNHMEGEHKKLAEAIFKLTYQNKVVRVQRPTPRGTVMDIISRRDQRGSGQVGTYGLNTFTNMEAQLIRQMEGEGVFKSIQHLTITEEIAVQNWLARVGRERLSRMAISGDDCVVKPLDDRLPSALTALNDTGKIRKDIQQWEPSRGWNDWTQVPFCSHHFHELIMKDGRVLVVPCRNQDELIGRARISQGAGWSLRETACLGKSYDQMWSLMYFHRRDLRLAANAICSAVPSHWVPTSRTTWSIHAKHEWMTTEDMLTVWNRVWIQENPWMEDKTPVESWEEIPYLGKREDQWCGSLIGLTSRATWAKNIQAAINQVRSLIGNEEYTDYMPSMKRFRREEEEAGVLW", "experiment": "Dengue-2 NS5 methyltransferase inhibitors, primary screen, biochemical, confirmation dose response (AID 588689)", "assay_type": "functional"}, "[3]": {"target": "Polyadenylate-binding protein 1 (Homo sapiens, UniProt P11940)", "sequence (P11940 whole entry)": "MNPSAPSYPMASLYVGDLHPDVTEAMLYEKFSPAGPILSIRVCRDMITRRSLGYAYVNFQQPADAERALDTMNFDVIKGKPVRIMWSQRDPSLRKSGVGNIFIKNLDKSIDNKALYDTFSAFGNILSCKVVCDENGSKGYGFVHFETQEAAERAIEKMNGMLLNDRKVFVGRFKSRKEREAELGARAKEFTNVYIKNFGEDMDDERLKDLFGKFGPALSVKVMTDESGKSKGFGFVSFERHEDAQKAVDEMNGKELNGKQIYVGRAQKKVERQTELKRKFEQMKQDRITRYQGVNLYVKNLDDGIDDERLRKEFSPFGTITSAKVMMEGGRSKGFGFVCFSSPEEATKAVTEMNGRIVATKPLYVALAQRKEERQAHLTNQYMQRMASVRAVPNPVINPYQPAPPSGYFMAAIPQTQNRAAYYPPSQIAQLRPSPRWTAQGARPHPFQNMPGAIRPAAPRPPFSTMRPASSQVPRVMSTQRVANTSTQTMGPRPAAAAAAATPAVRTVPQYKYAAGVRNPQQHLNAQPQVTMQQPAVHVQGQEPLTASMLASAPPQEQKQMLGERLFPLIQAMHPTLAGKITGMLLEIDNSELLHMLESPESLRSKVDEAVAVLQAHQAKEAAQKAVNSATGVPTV", "experiment": "PABP1 MLLE–PAM2 binding inhibitor potency, dose response, biochemical, fluorescence polarization, FITC-PAM2 peptide (AID 602259)", "assay_type": "functional", "details": "read-out: IC50_Mean"}, "Estrogen receptor": {"target": "T2, Estrogen receptor (Homo sapiens, UniProt P03372)", "T2 sequence (P03372 whole entry)": "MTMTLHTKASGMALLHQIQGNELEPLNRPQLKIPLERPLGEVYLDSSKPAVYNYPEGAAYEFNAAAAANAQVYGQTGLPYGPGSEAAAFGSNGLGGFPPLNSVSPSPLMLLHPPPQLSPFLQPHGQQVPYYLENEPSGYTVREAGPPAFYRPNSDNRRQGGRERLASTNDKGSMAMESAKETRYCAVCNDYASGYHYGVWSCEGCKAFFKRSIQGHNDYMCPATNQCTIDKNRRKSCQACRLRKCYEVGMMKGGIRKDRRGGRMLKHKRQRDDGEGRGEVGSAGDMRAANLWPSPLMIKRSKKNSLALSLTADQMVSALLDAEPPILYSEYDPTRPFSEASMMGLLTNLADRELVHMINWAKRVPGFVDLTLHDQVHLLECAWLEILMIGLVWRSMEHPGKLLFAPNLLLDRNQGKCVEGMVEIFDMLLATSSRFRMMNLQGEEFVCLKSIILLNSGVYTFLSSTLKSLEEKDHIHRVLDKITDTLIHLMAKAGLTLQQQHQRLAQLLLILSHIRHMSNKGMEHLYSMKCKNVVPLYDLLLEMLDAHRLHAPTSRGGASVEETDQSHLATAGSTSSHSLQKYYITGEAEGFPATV"}, "[4]": {"target": "T3, Mannose-6-phosphate isomerase (Homo sapiens, UniProt P34949)", "T3 sequence (P34949 whole entry)": "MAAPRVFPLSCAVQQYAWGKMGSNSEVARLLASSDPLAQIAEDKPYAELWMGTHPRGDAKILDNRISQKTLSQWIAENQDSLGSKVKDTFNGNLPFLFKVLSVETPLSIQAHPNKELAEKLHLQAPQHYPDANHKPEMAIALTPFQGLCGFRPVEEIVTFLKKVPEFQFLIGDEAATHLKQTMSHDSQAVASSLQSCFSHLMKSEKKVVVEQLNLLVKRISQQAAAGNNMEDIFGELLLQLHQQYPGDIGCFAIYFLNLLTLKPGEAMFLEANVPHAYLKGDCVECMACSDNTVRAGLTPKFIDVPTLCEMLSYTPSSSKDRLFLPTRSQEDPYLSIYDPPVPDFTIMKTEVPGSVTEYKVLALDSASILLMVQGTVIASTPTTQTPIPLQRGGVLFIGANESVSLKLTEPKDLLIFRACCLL", "experiment": "human PMI inhibitors, high substrate, primary screen, biochemical, fluorescence intensity, high mannose 6-phosphate (AID 1220)"}, "[5]": {"target": "Serine/threonine-protein phosphatase (Homo sapiens, UniProt Q9BPW0)", "sequence (Q9BPW0 whole entry)": "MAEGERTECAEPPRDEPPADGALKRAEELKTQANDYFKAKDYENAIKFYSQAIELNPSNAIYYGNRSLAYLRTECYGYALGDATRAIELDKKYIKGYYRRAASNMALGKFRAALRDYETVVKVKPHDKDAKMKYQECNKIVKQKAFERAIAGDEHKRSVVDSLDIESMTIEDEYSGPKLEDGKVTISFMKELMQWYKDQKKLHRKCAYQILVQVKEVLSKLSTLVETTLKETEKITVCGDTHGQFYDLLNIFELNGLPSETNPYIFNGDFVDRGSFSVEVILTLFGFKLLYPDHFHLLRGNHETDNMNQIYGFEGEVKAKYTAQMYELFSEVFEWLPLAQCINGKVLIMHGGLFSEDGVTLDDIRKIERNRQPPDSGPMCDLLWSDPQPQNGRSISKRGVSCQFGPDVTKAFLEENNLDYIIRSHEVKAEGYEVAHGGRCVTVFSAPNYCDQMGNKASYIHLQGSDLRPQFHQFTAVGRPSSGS", "experiment": "PP5 phosphatase inhibitors, dose response, biochemical, fluorescence (AID 2395)"}, "[6]": {"experiment": "HeLa cell cytotoxicity, dose response, cytotoxicity control for MgcRacGAP inhibitor project (AID 624300)", "assay_type": "functional"}, "[7]": {"experiment": "ARNT/TACC3 interaction disruptors, potency, confirmation, biochemical, AlphaScreen, cherry-picked samples (AID 651703);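 note: His-tagged ARNT PAS-B domain paired with GST-TACC3 E629A dimer coactivator fragment; potency of inhibitors that break up the complex and lower AlphaScreen signal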", "assay_type": "functional, Homo sapiens"}, "[8]": {"experiment": "growth suppression of PTEN-null colon cells, dose response, cell-based, HCT116 PTEN knockout (AID 1047);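 note: HCT116 colon tumor cells with PTEN knocked out; cells exposed to compound for 60 hours before readout; potency for loss of cell viability measured by luminescence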", "assay_type": "functional"}, "Caspase-9": {"target": "Caspase-9 (Homo sapiens, UniProt P55211)", "sequence (P55211 1-315 limits assumed)": "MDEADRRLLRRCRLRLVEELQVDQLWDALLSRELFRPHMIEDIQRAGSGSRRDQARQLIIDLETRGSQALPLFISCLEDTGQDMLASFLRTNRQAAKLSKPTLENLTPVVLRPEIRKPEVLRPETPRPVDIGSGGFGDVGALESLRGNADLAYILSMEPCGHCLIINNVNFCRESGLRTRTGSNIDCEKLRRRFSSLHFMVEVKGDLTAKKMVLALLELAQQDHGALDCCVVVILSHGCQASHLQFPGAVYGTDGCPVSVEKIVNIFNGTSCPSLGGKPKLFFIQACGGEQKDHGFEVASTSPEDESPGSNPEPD", "sequence (P55211 331-416 limits assumed)": "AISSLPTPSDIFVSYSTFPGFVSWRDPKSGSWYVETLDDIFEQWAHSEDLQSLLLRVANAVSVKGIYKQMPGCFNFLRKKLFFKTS", "experiment": "caspase-9 enzyme inhibition, dose response, selectivity assay for caspase-6 inhibitor project, biochemical, fluorescence, plate reader, cherry-picked samples (AID 743293)"}, "Caspase-8": {"target": "Caspase-8 (Homo sapiens, UniProt Q14790)", "sequence (Q14790 217-374 limits assumed)": "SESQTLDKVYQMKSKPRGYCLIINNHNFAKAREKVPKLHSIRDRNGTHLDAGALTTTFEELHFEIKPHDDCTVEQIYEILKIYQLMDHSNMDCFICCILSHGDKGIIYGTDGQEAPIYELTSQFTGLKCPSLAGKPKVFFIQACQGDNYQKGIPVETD", "sequence (Q14790 385-479 limits assumed)": "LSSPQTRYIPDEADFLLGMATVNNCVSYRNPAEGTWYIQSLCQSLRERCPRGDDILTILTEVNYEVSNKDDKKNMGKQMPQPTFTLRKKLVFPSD", "experiment": "caspase-8 inhibition counter-screen, dose response, selectivity assay for caspase-6 inhibitor project, biochemical, Z-IETD-R110 fluorescence, cherry-picked samples (AID 743294)"}, "[9]": {"target": "Tyrosyl-DNA phosphodiesterase 2 (Homo sapiens, UniProt O95551)", "experiment": "human TDP2 enzyme inhibitors, dose response, biochemical, epi absorbance, IC50 (AID 743297)"}},
  "note": "Active and inactive are the calls of the source.",
  "data": [
    {"compound": "NC(COc1cncc(-c2ccc3c(c2)C(=Cc2ccc[nH]2)C(=O)N3)c1)Cc1ccccc1", "note": "(centres undefined)", "values": [
      {"measurement": "Ki", "setting": "[1]", "result": "0.00501 µM (active)"},
      {"measurement": "Ki", "setting": "Focal adhesion kinase 1", "result": "2 µM (active)"}
    ]},
    {"compound": "O=C(NC1=C(Nc2ccc(F)cc2)C(=O)c2ccccc2C1=O)c1ccc(Cl)cc1", "values": [
      {"measurement": "AC50", "setting": "[2]", "result": "11.8 µM (active)"}
    ]},
    {"compound": "O=C(O)c1ccc2c(c1)[C@@H]1C=CC[C@@H]1[C@H](c1ccccn1)N2", "values": [
      {"measurement": "IC50", "setting": "Genome polyprotein", "result": "26.3 µM (active)"},
      {"measurement": "IC50", "setting": "[3]", "result": "53.3 µM (inactive)"},
      {"measurement": "IC50", "setting": "Estrogen receptor", "result": "9.53 µM (active)"}
    ]},
    {"compound": "CN(C)c1cc(N/N=C\\c2ccccc2)nc(N(C)C)n1", "values": [
      {"measurement": "IC50", "setting": "[4]", "result": "> 50 µM (not active)"},
      {"measurement": "IC50", "setting": "[5]", "result": "6.1 µM (active)"}
    ]},
    {"compound": "CCN(CC)CCOc1ccc2c(c1)C(=NNC(=O)c1ccccn1)c1cc(OCCN(CC)CC)ccc1-2", "values": [
      {"measurement": "CC50", "setting": "[6]", "result": "31.7 µM (active)"},
      {"measurement": "AC50", "setting": "[7]", "result": "109 µM (active)"},
      {"measurement": "EC50", "setting": "[8]", "result": "3.25 µM (active)"}
    ]},
    {"compound": "Oc1nc(Nc2ccc(F)cc2)cc2ccccc12", "values": [
      {"measurement": "AC50", "setting": "Caspase-9", "result": "3.04 µM (active)"},
      {"measurement": "AC50", "setting": "Caspase-8", "result": "2.48 µM (active)"},
      {"measurement": "IC50", "setting": "[9]", "result": "7.66 µM (active)"}
    ]}
  ]
}
